Assays:
ALK5 = biological target: T1, ALK5 (Homo sapiens, UniProt P36897); assay: In vitro activity against ALK5 kinase (ADP-Glo Kinase Assay); format: biochemical; conditions: 28° C. 120 minutes
T1 construct: purchased Carna 09-141
T1 sequence (P36897 162-503 limits assumed): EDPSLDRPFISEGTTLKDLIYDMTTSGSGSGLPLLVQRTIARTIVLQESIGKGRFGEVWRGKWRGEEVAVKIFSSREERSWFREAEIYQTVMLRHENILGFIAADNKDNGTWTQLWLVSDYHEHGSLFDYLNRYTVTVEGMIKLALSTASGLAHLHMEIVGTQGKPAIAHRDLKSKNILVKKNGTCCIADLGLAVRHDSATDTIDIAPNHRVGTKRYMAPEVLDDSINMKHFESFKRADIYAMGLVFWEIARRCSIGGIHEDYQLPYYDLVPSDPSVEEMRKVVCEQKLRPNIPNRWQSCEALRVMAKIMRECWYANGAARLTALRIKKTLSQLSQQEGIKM
Procedure: For the compounds of the present disclosure prepared in the above examples, each compound was prepared into 10 mM with DMSO, and then diluted to 3.333 μM, 1.111 μM, 370 nM, 123 nM, 41 nM, 14 nM, 4.6 nM, 1.5 nM and 0.5 nM successively.
Reagents: ALK5, Cat. No. 09-141, purchased from Carna; p38α, Cat. No. 04-152, purchased from the Carna; TGFβR1 peptides, Cat. No. T36-58, purchased from SignalChem; dimethyl sulfoxide (DMSO), purchased from Sigma, US; EDTA, purchased from Sigma, US; and ADP-Glo Kinase Assay, Cat. No. v9102/3, 1×Kinase buffer (40 mM Tris, pH7.5, 0.10% BSA, 20 mM MgCl2, 1 mM DTT), purchased from Promega, and prepared immediately before use.
2.2.1.1 Preparation of 50-fold compounds: The compounds were prepared into 500 μM, 50-fold concentration as the final concentration 10 μM for detecting the compounds, which was performed as following: into a second well of a 96-well plate, 95 μl of 100% DMSO was added, and then 5 μl of the 10 mM compound solution was added, to prepare a […] compound solution; into other wells, 60 μl of 100% DMSO was added; from the second well, 30 μl of the compound was drawn out and added into a third well; such 3-fold serial dilution was continued successively until 10 dilutions of concentration were made.
The kinase was added to a 1× kinase buffer, to form a 2× enzyme solution. 2.5 μl of the 2× enzyme solution was added to a 384-well reaction plate which already contained 100 nl of 100% DMSO-dissolved compound, to incubate at room temperature for 10 minutes.
FAM labeled peptides and ATP were added to the 1× kinase buffer, to form a 2× substrate solution. 2.5 μl of the 2× substrate solution was added to the 384-well reaction plate.
The 384-well plate was incubated at 28° C. for 120 minutes.
2.5.1 An ADP-Glo reagent was equilibrated to room temperature.
2.5.2 5 μl of the reaction solution was transferred into a reaction well at another new 384-well plate.
2.5.3 5 μl of the ADP-Glo reagent was transferred into the reaction well at the 384-well plate to stop the reaction.
2.5.4 An incubation was performed at 28° C. for 120 minutes.
2.5.5 10 μl of a kinase detection reagent was transferred into each reaction well, shaken for 1 minute, and was allowed to stand for 30 minutes at room temperature.
The luminescence value of the sample was read from Envision.
2.7.1 Luminescence reading data were copied from the Envision program.
2.7.2 The values of the luminescence reading were converted into the percent inhibition by the following formula.
Percent inhibition=(max−sample RLU)/(max−min)×100, where “min” stands for the fluorescence reading of the control sample with no enzyme added to the reaction; and “max” stands for the fluorescence reading of the sample with DMSO added as a control.
2.7.3 The date were imported into MS Excel and subjected to curve fitting using XLFit excel add-in version 5.4.0.8 and a fitting formula: Y=Bottom+(Top−Bottom)/(1+(IC50/X)^HillSlope).

[1] = test system: TGFβ-ALK5-SMAD2/3 signaling pathway in Luc-Smad2/3-NIH3T3 cells; assay: In vitro cell luciferase assay in Luc-Smad2/3-NIH3T3 cells stimulated with TGFβ1; format: cell-based; conditions: Mus musculus; TGFβ1 4 ng/mL, 2% FBS medium, luciferase chemiluminescence
Procedure: Test compounds: For the compounds of the present disclosure prepared in the above examples, each compound was prepared into 4 mM using DMSO. Then, a 4-fold serial dilution was made to obtain 20000.00 nM, 5000.00 nM, 1250.00 nM, 312.5 nM, 78.125 nM, 19.53 nM, 4.88 nM and 1.22 nM successively.
Luc-Smad2/3-NIH3T3 mouse fibroblasts (engineered to overexpress SMAD2,3-responsive promoter) were provided by a laboratory of China Pharmaceutical University.
Reagents: DMEM, purchased from Invitrogen, US; FBS, purchased from Invitrogen, US; DMSO, purchased from Sigma, US; Glo Lysis Buffer, purchased from Progema, US; Bright-Glo Luciferase assay system, purchased from Promega, US; and TGFβ, purchased from PeproTech, US.
Instruments: MD SpectraMaX M3 multifunctional enzyme reader, purchased from Molecular Devices, US.
Cell recovery: The cells were dissolved by placing in a […] water bath, then transferred to a 15 mL of pre-warmed culture medium, and centrifuged at 1000 rpm for 5 minutes. After the culture medium was discarded, the cells were resuspend in 15 mL of fresh culture medium, transferred to a 10 cm dish, and placed in an incubator at 37° C. with 5% CO2 for culture. After 24 hours, the culture medium for the cells was changed with a fresh culture medium.
Cell passage: The recovered cells were transferred to a 50 mL sterile centrifuge tube and centrifuged at 1000 rpm for 5 minutes. The culture medium was discarded. The evenly dispersed cells was counted, and adjusted to an appropriate cell concentration of 15 mL of fresh culture medium, added to a 10 cm dish, and placed in an incubator at 37° C. with 5% CO2 for culture.
Luc-Smad2/3-NIH3T3 cells were cultured normally in a 10 cm culture dish until the confluence reached 80%-90%. After digestion, they were collected in a 15 mL centrifuge tube, centrifuged at 1000×g for 5 minutes to remove the supernatant, and resuspended with 1 mL of medium, then diluted 10 times and counted. The cells was diluted according to the results from the count, and transferred into a 96-well plate at 4×10^3/cells per well (100 μl of resuspended cells was added in each well).
1-2 mg of the drug was weighed (weighed in advance), and prepared into a 4 mM stock solution using DMSO. After 24 hours, the culture medium was removed. The drug was diluted with 2% FBS culture medium. 100 μl of the 1× drug solution was added to make the final concentration of the drug to be 20000.00 nM, 5000.00 nM, 1250.00 nM, 312.5 nM, 78.125 nM, 19.53 nM, 4.88 nM, and 1.22 nM. TGFβ1 was present in each well at a final concentration of 4 ng/mL, and diluted with 2% FBS culture medium together with the compounds.
The Glo Lysis Buffer and the Bright-glo luciferase assay system as well as the cells were equilibrated to room temperature. After the cell supernatant was removed, the cells were dissolved evenly by adding 100 μl of the Glo Lysis Buffer to each well with shaking slowly, and lysed at room temperature for 5 minutes. After that, to each well, 100 μl of the Bright-glo luciferase assay system was added to incubate the cells for 5 minute at room temperature with shaking for 2 minutes. Then, 180 μl of the supernatant was transferred to a white bottom 96-well plate to detect chemiluminescence signal. The detection condition was 1 s.
2.3 Data processing: Graphpad Prism 5 software was used to perform nonlinear curve fitting and data analysis to obtain IC50 by fitting.

[2] = animal models; cited from earlier work

IC50 (ALK5) [nM]	Structure (SMILES)	IC50 [1] [nM]	cardiotoxicity (such as bleeding, functional deterioration, and inflammatory injury) [2]
100	CC(C)(O)c1cc(-c2ccc3c(Oc4cn(C5CC5)nc4C4CCOCC4)ccnc3c2)ccn1 [Example 16, 2-(4-(4-((1-cyclopropyl-3-(tetrahydro-2H-pyran-4-yl)-1H-pyrazol-4-yl)oxy)quinolin-7-yl)pyridin-2-yl)propan-2-ol]	200	
5.2	Cn1cc(-c2ccc3c(Oc4cn(C5CC5)nc4C4CCOCC4)ccnc3c2)cn1 [Example 7, 4-((1-cyclopropyl-3-(tetrahydro-2H-pyran-4-yl)-1H-pyrazol-4-yl)oxy)-7-(1-methyl-1H-pyrazol-4-yl)quinoline]	81	
120	CC(C)(O)c1cc(Nc2ccc3c(Oc4cn(C5CC5)nc4C4CCOCC4)ccnc3c2)ccn1 [Example 1, 2-(4-((4-((1-cyclopropyl-3-(tetrahydro-2H-pyran-4-yl)-1H-pyrazol-4-yl)oxy)quinolin-7-yl)amino)pyridin-2-yl)propan-2-ol]	200	
	Cc1cccc(-c2nn3c(c2-c2ccnc4ccc(C(N)=O)cc24)CCC3)n1 [Galunisertib]		certain cardiotoxicity
66	COc1cc2nccc(Oc3cn(C4CC4)nc3C3CCOCC3)c2cc1C(N)=O [Example 17, 4-((1-cyclopropyl-3-(tetrahydro-2H-pyran-4-yl)-1H-pyrazol-4-yl)oxy)-7-methoxyquinoline-6-carboxamide]	131	
6	COc1cc2nccc(Oc3cn(C4CC4)nc3C3CCOCC3)c2cc1Nc1cnn(C)c1 [Example 18, 4-((1-cyclopropyl-3-(tetrahydro-2H-pyran-4-yl)-1H-pyrazol-4-yl)oxy)-7-methoxy-N-(1-methyl-1H-pyrazol-4-yl)quinoline-6-amine]	87	
250	O=S1(=O)CCN(c2ccc3c(Oc4cn(C5CC5)nc4C4CCOCC4)ccnc3c2)CC1 [Example 4, 4-(4-((1-cyclopropyl-3-(tetrahydro-2H-pyran-4-yl)-1H-pyrazol-4-yl)oxy)quinolin-7-yl)thiomorpholine-1,1-dioxide]	140	
10	COc1cc2nccc(Oc3cn(C4CC4)nc3C3CCOCC3)c2cc1Nc1cnn(C2COC2)c1 [Example 19, 4-((1-cyclopropyl-3-(tetrahydro-2H-pyran-4-yl)-1H-pyrazol-4-yl)oxa)-7-methoxy-N-(1-(oxetan-3-yl)-1H-pyrazol-4-yl)quinoline-6-amine]	203	
66	FC(F)(F)Cn1cc2c(n1)CN(c1ccc3c(Oc4cn(C5CC5)nc4C4CCOCC4)ccnc3c1)C2 [Example 6, 4-((1-cyclopropyl-3-(tetrahydro-2H-pyran-4-yl)-1H-pyrazol-4-yl)oxy)-7-(2-(2,2,2-trifluoroethyl)-2,6-dihydropyrrolo[3,4-c]pyrazole-5(4H)-yl)quinoline]	165	
80	FC(F)(F)c1nnc2n1CCN(c1ccc3c(Oc4cn(C5CC5)nc4C4CCOCC4)ccnc3c1)C2 [Example 3, 4-((1-cyclopropyl-3-(tetrahydro-2H-pyran-4-yl)-1H-pyrazol-4-yl)oxy)-7-(3-(trifluoromethyl)-5,6-dihydro-[1,2,4]triazolo[4,3-a]pyrazin-7(8H)-yl)quinoline]	102	
98	c1cc(Oc2cn(C3CC3)nc2C2CCOCC2)c2ccc(N3CCOCC3)cc2n1 [Example 2, 4-(4-((1-cyclopropyl-3-(tetrahydro-2H-pyran-4-yl)-1H-pyrazol-4-yl)oxy)quinolin-7-yl)morpholine]	150	
110	CC1(O)CCN(c2ccc3c(Oc4cn(C5CC5)nc4C4CCOCC4)ccnc3c2)CC1 [Example 5, 1-(4-((1-cyclopropyl-3-(tetrahydro-2H-pyran-4-yl)-1H-pyrazol-4-yl)oxy)quinolin-7-yl)-4-methyl piperidin-4-ol]	133	
3.2	CS(=O)(=O)c1ccc(-c2ccc3c(Oc4cn(C5CC5)nc4C4CCOCC4)ccnc3c2)cc1 [Example 15, 4-((1-cyclopropyl-3-(tetrahydro-2H-pyran-4-yl)-1H-pyrazol-4-yl)oxy)-7-(4-(methylsulfonyl)phenyl) quinoline]	80	

Source: patent publication US20210395235A1, “COMPOUND AS TGF-beta R1 INHIBITOR AND APPLICATION THEREOF” (NANJING SANHOME PHARMACEUTICAL CO., LTD., priority 2018, published 2021)
